# Laboratory results from US20250163104A1, “MACROCYCLIC IMMUNOMODULATORS” (priority 2021, published 2025).
# Where a SMILES comes first, the peptide text is derived from it. Bridges are numbered along the chain shown (N, C = ends). [ ]: non-standard residue; d: D form. The star is where a group is joined. ξ: configuration not given here. Phe(3-Ph) = N[C@@H](Cc1cccc(-c2ccccc2)c1)C(=O)O; Phe(4-COOH) = N[C@@H](Cc1ccc(C(=O)O)cc1)C(=O)O; Phe(4-CH2NH2) = NCc1ccc(C[C@H](N)C(=O)O)cc1; Bip = N[C@@H](Cc1ccc(-c2ccccc2)cc1)C(=O)O; Phe(3-Me) = Cc1cccc(C[C@H](N)C(=O)O)c1; Val(3-OH) = CC(C)(O)[C@H](N)C(=O)O; 4Pal = N[C@@H](Cc1ccncc1)C(=O)O; Cha = N[C@@H](CC1CCCCC1)C(=O)O; Cit = NC(=O)NCCC[C@H](N)C(=O)O; Ile(3ξ) = CCC(C)[C@H](N)C(=O)O; Thr(3ξ) = CC(O)[C@H](N)C(=O)O; Carboxymethyl = O=C(O)C*; Nle = CCCC[C@H](N)C(=O)O; Orn = NCCC[C@H](N)C(=O)O; Dab = NCC[C@H](N)C(=O)O; Dap = NC[C@H](N)C(=O)O
# Target: T1, human PD-1 / PD-L1-Ig binding on Jurkat cell line over-expressing human PD-1 (Jurkat-PD-1) (Homo sapiens, UniProt Q15116)
# T1 construct: expressed in transfected cells; host or cells: Jurkat
# T1 sequence (Q15116 25-288): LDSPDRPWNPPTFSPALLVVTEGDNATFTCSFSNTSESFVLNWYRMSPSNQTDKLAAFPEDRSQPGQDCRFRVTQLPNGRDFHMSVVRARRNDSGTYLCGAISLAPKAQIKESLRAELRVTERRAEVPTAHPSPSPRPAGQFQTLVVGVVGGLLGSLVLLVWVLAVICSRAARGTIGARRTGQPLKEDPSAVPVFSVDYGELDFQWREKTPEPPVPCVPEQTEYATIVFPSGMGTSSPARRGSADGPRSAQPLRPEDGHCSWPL
# Assay: Jurkat-PD-1 Cell Binding High-Content Screening Assay (CBA)
# Type: cell-based
# Settings: Jurkat-PD-1 cells, PE-labeled PD-L1-Ig 20 nM final; read-out: Jurkat HPD1_PDL1 IC50
# Method in brief: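 Cell-bound PE-labeled PD-L1-Ig (20 nM final, 1 h) measured by high-content imaging after fixation and Hoechst 33342 counterstain. Compound was applied first for 2 h at 37° C. to Jurkat cells over-expressing human PD-1 in DMEM with 10% FCS.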
row,Structure (SMILES),IC50 [nM]
1,Cc1cccc(C[C@@H]2NC(=O)[C@H](CC(=O)O)NC(=O)[C@H](Cc3ccc(OCC(=O)O)cc3)NC(=O)[C@H](C(C)O)NC(=O)CSC[C@@H](C(N)=O)NC(=O)[C@H](C(C)O)NC(=O)[C@H](C(C)C)NC(=O)[C@H](CC3CCCCC3)NC(=O)[C@H](CCN)NC(=O)[C@@H](CC(C)C)NC(=O)[C@H](CCCN)NC(=O)[C@H](C(C)C)NC(=O)[C@H](Cc3ccc(-c4ccccc4)cc3)NC(=O)[C@H](C(C)C)NC2=O)c1 (stereo partly drawn) [Compound 2605] ({CH2CO}-[Thr(3ξ)]Y(Carboxymethyl)D[Phe(3-Me)]V[Bip]V[Orn][dL][Dab][Cha]V[Thr(3ξ)]C-NH2; thioether N-14),18.9
2,Cc1cccc(C[C@@H]2NC(=O)[C@H](CC(=O)O)NC(=O)[C@H](Cc3ccncc3)NC(=O)[C@H](CN)NC(=O)CSC[C@@H](C(N)=O)NC(=O)[C@H]([C@@H](C)O)NC(=O)[C@H](C(C)C)NC(=O)[C@H](CC(C)C)NC(=O)[C@H](CCN)NC(=O)[C@@H](CC(C)C)NC(=O)[C@H](CCCN)NC(=O)[C@H](CCCNC(N)=O)NC(=O)[C@H](Cc3cccc(-c4ccccc4)c3)NC(=O)[C@H](C(C)C)NC2=O)c1 [Compound 1654] ({CH2CO}-[Dap][4Pal]D[Phe(3-Me)]V[Phe(3-Ph)][Cit][Orn][dL][Dab]LVTC-NH2; thioether N-14),124
3,Cc1cccc(C[C@@H]2NC(=O)[C@H](CC(=O)O)NC(=O)[C@H](Cc3ccc(OCC(=O)O)cc3)NC(=O)[C@H](Cc3ccncc3)NC(=O)CSC[C@@H](C(=O)N[C@@H](CCN)C(N)=O)NC(=O)[C@H](CO)NC(=O)[C@H](C(C)(C)O)NC(=O)[C@H](CC3CCCCC3)NC(=O)[C@H](Cc3cnc[nH]3)NC(=O)[C@@H](CC(C)C)NC(=O)[C@H](CCCN)NC(=O)[C@H](Cc3ccc(OCC(=O)O)cc3)NC(=O)[C@H](Cc3ccc(-c4ccccc4)cc3)NC(=O)[C@H](Cc3ccc(OCC(=O)O)cc3)NC2=O)c1 [Compound 2645] ({CH2CO}-[4Pal]Y(Carboxymethyl)D[Phe(3-Me)]Y(Carboxymethyl)[Bip]Y(Carboxymethyl)[Orn][dL]H[Cha][Val(3-OH)]SC[Dab]-NH2; thioether N-14),11.7
4,CCCC[C@@H]1NC(=O)[C@H](CCN)NC(=O)[C@@H](CC(C)C)NC(=O)[C@H](CCCN)NC(=O)[C@H](C(C)C)NC(=O)[C@H](Cc2ccc(-c3ccccc3)cc2)NC(=O)[C@H](C(C)C)NC(=O)[C@H](Cc2cccc(C)c2)NC(=O)[C@H](CC(=O)O)NC(=O)[C@H](Cc2ccc(C(=O)O)cc2)NC(=O)[C@H](Cc2ccncc2)NC(=O)CSC[C@@H](C(=O)N[C@@H](C)C(N)=O)NC(=O)[C@H]([C@@H](C)O)NC(=O)[C@H](C(C)C)NC1=O [Compound 1193] ({CH2CO}-[4Pal][Phe(4-COOH)]D[Phe(3-Me)]V[Bip]V[Orn][dL][Dab][Nle]VTCA-NH2; thioether N-14),7.7
5,CCC(C)[C@@H]1NC(=O)[C@H](Cc2ccc(-c3ccccc3)cc2)NC(=O)[C@H](C(C)C)NC(=O)[C@H](Cc2c[nH]c3ccccc23)NC(=O)[C@H](CC(=O)O)NC(=O)[C@H](Cc2ccc(O)cc2)NC(=O)[C@H](Cc2ccncc2)NC(=O)CSC[C@@H](C(=O)N[C@@H](C)C(N)=O)NC(=O)[C@H](C(C)O)NC(=O)[C@H](C(C)C)NC(=O)[C@H](CC2CCCCC2)NC(=O)[C@H](CC(N)=O)NC(=O)[C@@H](CC(C)C)NC(=O)[C@H](Cc2ccc(CN)cc2)NC1=O (stereo partly drawn) [Compound 2506] ({CH2CO}-[4Pal]YDWV[Bip][Ile(3ξ)][Phe(4-CH2NH2)][dL]N[Cha]V[Thr(3ξ)]CA-NH2; thioether N-14),70.6
6,CCCC[C@@H]1NC(=O)[C@H](CCCNC(=N)N)NC(=O)[C@@H](CC(C)C)NC(=O)[C@H](CCCN)NC(=O)[C@H](CCCNC(N)=O)NC(=O)[C@H](Cc2ccc(-c3ccccc3)cc2)NC(=O)[C@H](C(C)C)NC(=O)[C@H](Cc2c[nH]c3ccccc23)NC(=O)[C@H](CC(=O)O)NC(=O)[C@H](Cc2ccc(O)cc2)NC(=O)[C@H](CN)NC(=O)CSC[C@@H](C(=O)N[C@@H](C)C(N)=O)NC(=O)[C@H]([C@@H](C)O)NC(=O)[C@H](C(C)C)NC1=O [Compound 1175] ({CH2CO}-[Dap]YDWV[Bip][Cit][Orn][dL]R[Nle]VTCA-NH2; thioether N-14),82
